# Paper PMC10926482, “BK Channels Are Activated by Functional Coupling With L-Type Ca^2+ Channels in Cricket Myocytes” (Frontiers in Insect Science, 2021)
# Tested on: T1, BK channel (large-conductance Ca2+-activated K+ channel) of cricket oviduct myocytes
# T1 construct: gene slo; native channel in isolated adult female lateral oviduct myocytes; single-channel patch clamp; not molecularly identified; homotetramer expected, auxiliary subunits unknown
# Assay: cell-attached single-channel patch clamp, current amplitude, pipette backfill
# Format: cell-based, Gryllus bimaculatus
# Conditions: extracellular side; open-channel block; Hill coefficient 1.0; pipette solution 140 mM KCl, 1.6 mM CaCl2, pH 7.4; 22–27°C; counterion not given
# Excerpt: cell-attached single-channel patch clamp, current amplitude, pipette backfill on BK channel (large-conductance Ca2+-activated K+ channel) of cricket oviduct myocytes | inhibitory effect on the current amplitude of a single BK channel with an IC50 value
smiles,measurement,value
"CC[N+](CC)(CC)CC [TEA, tetraethylammonium]",IC50,319 ± 68.8 µM
